Source: paper PMC4394749 (Journal of medicinal chemistry, 2015)

Assays:
PC-3 cells [1] = assay: Immunofluorescence staining of microtubules in PC-3 cells; assay type: cell-based, human; conditions: PC-3, 24 h; for microtubule morphology: equitoxic concentrations: 0.2 µM 4, 0.2 µM CA-4, 5 µM VIN, 0.2 µM PXL; for dose-dependent effects on microtubule morphology: compounds 0.2, 2 or 20 µM, CA-4 0.002 or 20 µM
[2] = tested on: SK-BR-3 (HER2-overexpressing breast cancer); assay: SRB antiproliferative assay, SK-BR-3; assay type: cell-based, human; conditions: for IC50: read-out: IC50 SK-BR3, 72 h
[3] = tested on: tumor cell lines overexpressing P-gp; conditions: cited from earlier work
bovine brain tubulin [4] = target: T1, bovine brain tubulin (Bos taurus, UniProt P81947+Q6B856); assay: Inhibition of purified tubulin assembly; assay type: biochemical
T1 sequence (P81947 whole entry): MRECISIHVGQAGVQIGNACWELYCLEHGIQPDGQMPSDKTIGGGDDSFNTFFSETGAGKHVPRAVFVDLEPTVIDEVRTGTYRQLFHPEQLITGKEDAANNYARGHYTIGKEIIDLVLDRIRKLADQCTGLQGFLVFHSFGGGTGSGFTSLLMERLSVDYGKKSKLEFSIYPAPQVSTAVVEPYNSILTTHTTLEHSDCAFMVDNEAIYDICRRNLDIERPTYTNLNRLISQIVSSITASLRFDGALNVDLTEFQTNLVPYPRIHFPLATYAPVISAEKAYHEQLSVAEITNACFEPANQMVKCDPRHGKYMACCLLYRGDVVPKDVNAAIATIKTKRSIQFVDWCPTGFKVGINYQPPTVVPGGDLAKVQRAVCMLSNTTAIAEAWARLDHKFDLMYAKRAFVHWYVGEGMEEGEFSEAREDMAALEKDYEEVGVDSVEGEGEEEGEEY
T1 sequence (Q6B856 whole entry): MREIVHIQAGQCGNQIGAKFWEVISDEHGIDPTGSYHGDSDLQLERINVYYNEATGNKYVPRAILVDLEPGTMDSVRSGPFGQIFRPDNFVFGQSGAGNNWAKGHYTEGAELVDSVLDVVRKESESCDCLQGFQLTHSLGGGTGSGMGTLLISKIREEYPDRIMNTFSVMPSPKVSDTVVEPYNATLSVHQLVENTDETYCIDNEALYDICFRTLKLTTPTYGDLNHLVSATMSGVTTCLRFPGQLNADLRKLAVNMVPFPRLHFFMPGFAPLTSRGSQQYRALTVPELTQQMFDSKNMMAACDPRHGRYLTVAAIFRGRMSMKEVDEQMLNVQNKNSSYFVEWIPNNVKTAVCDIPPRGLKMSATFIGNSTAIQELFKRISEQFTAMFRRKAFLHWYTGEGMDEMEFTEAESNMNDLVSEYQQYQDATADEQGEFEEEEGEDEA

[5] = tested on: MDA-MB-231 (triple-negative breast cancer); assay: SRB antiproliferative assay, MDA-MB-231; assay type: cell-based, human; conditions: read-out: IC50 MDA-MB-231, 72 h
KB-VIN cells [6] = assay: Tubulin assembly in KB-VIN cells; assay type: cell-based, human; conditions: data not shown
[7] = tested on: MCF-7 (estrogen-receptor-positive, HER2-negative breast cancer); assay: SRB antiproliferative assay, MCF-7; assay type: cell-based, human; conditions: read-out: IC50 MCF-7, 72 h
[8] = tested on: KB (epidermoid carcinoma of the nasopharynx); assay: SRB antiproliferative assay, KB; assay type: cell-based, human; conditions: for IC50: read-out: IC50 KB, 72 h; for IC50 KB: 72 h
PC-3 (prostate cancer) = assay: SRB antiproliferative assay, PC-3; assay type: cell-based, human; conditions: for IC50: read-out: IC50 PC-3; for IC50 / IC50 PC-3: SRB, 72 h
A549 (lung carcinoma) = assay: SRB antiproliferative assay, A549; assay type: cell-based, human; conditions: for IC50: read-out: IC50 A549, 72 h; for IC50 A549: 72 h
[9] = tested on: ZR-75-1 (estrogen-receptor-positive, HER2-positive breast cancer); assay: SRB antiproliferative assay, ZR-75-1; assay type: cell-based, human; conditions: read-out: IC50 ZR-75-1, 72 h
[10] = tested on: KB-VIN (P-gp-overexpressing MDR subline of KB); assay: SRB antiproliferative assay, KB-VIN; assay type: cell-based, human; conditions: for IC50: read-out: IC50 KB-VIN, 72 h
[11] = tested on: HCT-8 (human colon adenocarcinoma); assay: SRB antiproliferative assay, HCT-8; assay type: cell-based; conditions: for IC50: read-out: IC50 HCT-8; for IC50 / IC50 HCT-8: SRB, 72 h
PC-3 cells [12] = assay: Cell cycle analysis by flow cytometry; assay type: cell-based, human; conditions: 2 µM, 24 h
bovine brain tubulin [13] = target: T1, bovine brain tubulin; assay: Inhibition of [3H]colchicine binding to tubulin; conditions: for ICB, percent inhibition of colchicine binding: 5 µM [3H]colchicine, 1 µM tubulin, 5 µM test compound
[14] = tested on: HepG2 (hepatocellular carcinoma); assay: SRB antiproliferative assay, HepG2; assay type: cell-based, human; conditions: for IC50: read-out: IC50 Hep-G2, 72 h; for IC50 Hep-G2: 72 h
human tumor cell lines = assay: SRB antiproliferative assay, comparison across tumor cell lines; assay type: cell-based
KB cells = assay: Cell cycle analysis by flow cytometry; assay type: cell-based, human; conditions: 6 or 24 h, PXL 0.02 µM, 4 0.5 µM, 8 2 µM
KB-VIN cells [15] = assay: Cell cycle analysis by flow cytometry; assay type: cell-based, human; conditions: 6 or 24 h, PXL 3 µM, 4 0.5 µM, 8 2 µM

SMILES | IC50 [2] | IC50 [8] | IC50 (PC-3 (prostate cancer)) | IC50 (A549 (lung carcinoma)) | IC50 [10] | IC50 [11] | ICB, percent inhibition of colchicine binding (bovine brain tubulin [13]) | IC50 [14] | also measured
COc1ccc(/C=C\c2cc(OC)c(OC)c(OC)c2)cc1O [CA-4, combretastatin A-4, reference compound] |  |  |  |  |  |  |  |  | microtubule morphology (PC-3 cells [1]): both depolymerization of interphase microtubules and disruption of mitotic spindles; dose-dependent effects on microtubule morphology (PC-3 cells [1]): Dose-dependent disruption of both interphase microtubules and spindles
CC1=C(O)C(C)(C)c2oc(-c3ccccc3)cc(=O)c2C1=O [Compound 1, Desmosdumotin B, reference compound] | > 40 µM | > 135 µM | > 40 µM | > 40 µM | 6.76 µM |  |  |  | selective index (SI), IC50 against non-MDR cells divided by IC50 against MDR cells [3]: > 20; ITA, inhibition of purified tubulin assembly, EC50 (bovine brain tubulin [4]; 10 µM tubulin, 0.4 mM GTP, 30 °C, NA = not active): no effects on tubulin assembly; IC50 [5]: > 40 µM; effect on tubulin assembly in cells (KB-VIN cells [6]): no effects on tubulin assembly; IC50 [7]: > 40 µM; IC50 [9]: > 40 µM
CCC1=C(O)c2c(oc(-c3ccccc3)cc2=O)C(CC)(CC)C1=O [Compound 2, 6,8,8-triethyldesmosdumotin B] |  |  |  |  |  |  |  |  | selective index (SI), IC50 against non-MDR cells divided by IC50 against MDR cells [3]: > 220
CCC1=C(O)c2c(oc(-c3csc4cccc(O)c34)cc2=O)C(CC)(CC)C1=O [Compound 6, 2-(4′-Hydroxybenzo[b]thiophen-3′-yl)-6,8,8-triethyldesmos-dumotin B] | 0.65 µM | 2.01 µM | 1.73 µM | 1.78 µM |  | 1.71 µM | 70% | 1.29 µM | inhibitory effect on tubulin assembly, fold greater than 8 (bovine brain tubulin [4]; 6 compared with 8): 2 fold; effect on cell cycle distribution (PC-3 cells [12]): efficiently induced accumulation of G2/M phase cells; IC50 [5]: 0.71 µM; inhibitory effect on colchicine binding, fold greater than 8 (bovine brain tubulin [13]; 6 compared with 8): 2 fold; IC50 [7]: 2.75 µM; dose-dependent effects on microtubule morphology (PC-3 cells [1]): Dose-dependent disruption of both interphase microtubules and spindles; IC50 [9]: 11.6 µM
CCC1=C(O)c2c(oc(-c3csc4ccc(O)cc34)cc2=O)C(CC)(CC)C1=O [Compound 7, 2-(5′-Hydroxybenzo[b]thiophen-3′-yl)-6,8,8-triethyldesmos-dumotin B] |  |  |  |  |  |  | 32% |  | 
CCC1=C(O)c2c(oc(-c3csc4cc(O)ccc34)cc2=O)C(CC)(CC)C1=O [Compound 8, 2-(6′-Hydroxybenzo[b]thiophen-3′-yl)-6,8,8-triethyldesmos-dumotin B] |  |  |  |  |  |  | 39% |  | 
CCC1=C(O)c2c(oc(-c3csc4c(O)cccc34)cc2=O)C(CC)(CC)C1=O [Compound 9, 2-(7′-Hydroxybenzo[b]thiophen-3′-yl)-6,8,8-triethyldesmos-dumotin B] |  | 1.28 µM | 1.47 µM | 2.04 µM | 1.12 µM | 10.6 µM | 37% | 3.01 µM | fold reduced inhibitory effect against HCT-8 ([11]; compared with 6 and 8): more than 5 fold; effect on cell cycle distribution (PC-3 cells [12]): efficiently induced accumulation of G2/M phase cells; dose-dependent effects on microtubule morphology (PC-3 cells [1]): Dose-dependent disruption of both interphase microtubules and spindles
CCC1=C(O)c2c(oc(-c3csc4cccc(OC)c34)cc2=O)C(CC)(CC)C1=O [Compound 10, 2-(4′-Methoxybenzo[b]thiophen-3′-yl)-6,8,8-triethyldes-mosdumotin B] | 18.7 µM |  |  |  | 11.8 µM |  |  |  | IC50 HCT-8 [11]: NA (NA, not active (IC50 > 10 µg/mL)); IC50 KB [8]: NA ^e (NA, not active (IC50 > 10 µg/mL)); IC50 PC-3 (PC-3 (prostate cancer)): NA (NA, not active (IC50 > 10 µg/mL)); IC50 A549 (A549 (lung carcinoma)): NA (NA, not active (IC50 > 10 µg/mL)); IC50 Hep-G2 [14]: NA (NA, not active (IC50 > 10 µg/mL))
CCC1=C(O)c2c(oc(-c3csc4ccc(OC)cc34)cc2=O)C(CC)(CC)C1=O [Compound 11, 2-(5′-Methoxybenzo[b]thiophen-3′-yl)-6,8,8-triethyldes-mosdumotin B] |  |  |  |  |  | 16.2 µM |  |  | IC50 SK-BR3 ([2]; 72 h): NA (NA, not active (IC50 > 10 µg/mL)); IC50 KB [8]: NA (NA, not active (IC50 > 10 µg/mL)); IC50 PC-3 (PC-3 (prostate cancer)): NA (NA, not active (IC50 > 10 µg/mL)); IC50 A549 (A549 (lung carcinoma)): NA (NA, not active (IC50 > 10 µg/mL)); IC50 Hep-G2 [14]: NA (NA, not active (IC50 > 10 µg/mL)); IC50 KB-VIN ([10]; 72 h): NA (NA, not active (IC50 > 10 µg/mL))
CCC1=C(O)c2c(oc(-c3csc4c(OC)cccc34)cc2=O)C(CC)(CC)C1=O [Compound 12, 2-(7′-Methoxybenzo[b]thiophen-3′-yl)-6,8,8-triethyldes-mosdumotin B] | 7.97 µM | 12.1 µM | 8.51 µM | 15.8 µM | 10.7 µM |  |  |  | IC50 HCT-8 [11]: NA (NA, not active (IC50 > 10 µg/mL)); IC50 [5]: 8.17 µM; IC50 [7]: 7.22 µM; IC50 Hep-G2 [14]: NA (NA, not active (IC50 > 10 µg/mL)); IC50 [9]: 9.81 µM
CCC1=C(O)c2c(oc(-c3sc4ccccc4c3O)cc2=O)C(CC)(CC)C1=O [Compound 14, 2-(3′-Hydroxybenzo[b]thiophen-2′-yl)-6,8,8-triethyldesmos-dumotin B] | 12.1 µM | 19.6 µM | 14.6 µM | 12.5 µM | 6.61 µM | 16.5 µM |  | 15.8 µM | fold reduced activity against PC-3 (PC-3 (prostate cancer); compared with parent compound 13): 4 fold
CCC1=C(O)c2c(oc(-c3ccc(O)c4ccccc34)cc2=O)C(CC)(CC)C1=O [Compound 16, 2-(4′-Hydroxynaphthalen-1′-yl)-6,8,8-triethyldesmosdumo-tin B] |  | 0.74 µM | 1.11 µM | 0.94 µM | 0.45 µM | 1.02 µM | 54% | 0.37 µM | antiproliferative effect, times greater than parent compound 5 (human tumor cell lines; HepG2, KB and KB-VIN): 2–6 times
CCC1=C(O)c2c(oc(-c3ccc4cc(O)ccc4c3)cc2=O)C(CC)(CC)C1=O [Compound 19, 2-(6′-Hydroxynaphthalen-2′-yl)-6,8,8-triethyldesmosdumo-tin B] | 13.8 µM | 19.9 µM | 12.9 µM | 14.9 µM | 13.7 µM | 14.1 µM |  | 13.4 µM | fold less active than 15 and 16 (human tumor cell lines; generally, over the tested cell lines): ~10 fold
CC(=O)O[C@H]1C(=O)[C@@]2(C)[C@H]([C@H](OC(=O)c3ccccc3)[C@]3(O)C[C@H](OC(=O)[C@H](O)[C@@H](NC(=O)c4ccccc4)c4ccccc4)C(C)=C1C3(C)C)[C@]1(OC(C)=O)CO[C@@H]1C[C@@H]2O [PXL, paclitaxel, reference compound] |  |  |  |  |  |  |  |  | effect on cell cycle distribution (KB cells): significantly impacted the cell cycle; effect on cell cycle distribution (KB-VIN cells [15]): did not show any effect; microtubule morphology (PC-3 cells [1]): inhibited the onset of mitosis and arrested cells at prometaphase with condensed chromosomes
CC[C@]1(O)C[C@H]2CN(CCc3c([nH]c4ccccc34)[C@@](C(=O)OC)(c3cc4c(cc3OC)N(C=O)[C@H]3[C@@](O)(C(=O)OC)[C@H](OC(C)=O)[C@]5(CC)C=CCN6CC[C@]43[C@@H]65)C2)C1 [VIN, vincristine, reference compound] |  |  |  |  |  |  |  |  | microtubule morphology (PC-3 cells [1]): tubulin paracrystal formation
